# Data as given in patent US20070243201A1, “Method for Selecting Epitopes for Immunotherapy” (Igeneon Krebs-Immuntherapie Forschungs-und entwicklungs-AG, priority 2003, published 2007).
# System: immune serum
# Test: Ep-CAM epitope mapping by solid phase peptide (spot) synthesis: binding of biotinylated serum IgG to immobilized decapeptides
# Settings: immune serum of a patient after active immunotherapy with mAb17-1A (EpCAM antibody), taken 71 days after immunization; compared with pre-serum of day 1, which does not show this binding or shows it to a slight degree only; FIG. 1
# Description: Protein G Sepharose Fast Flow (Amersham Biosciences) was packed into an HR 5 column (inner diameter 5 mm; Amersham Biosciences). The column was equilibrated with 5 column volumes of PBS buffer at a flow rate of 0.33 ml/min. Subsequently, serum was loaded at the same flow rate, followed by washing with further 5 column volumes. Elution was carried out with 0.2 M acetic acid +20% ethylene glycol, pH 2.7. The eluate was taken up in 1 M sodium bicarbonate buffer and thus brought to pH 8.6.
# One aliquot of the purified serum was incubated with NHS-LC biotin for 1 h at room temperature. Subsequently, the sample was re-buffered via a Sephadex G25 gel filtration column (PD-10, Amersham Biosciences) so as to separate the biotinylated […] from free […], on the one hand, and to further transfer it into a medium suitable for the test system.
# The spot synthesis was carried out by means of a modified method according to Frank (Tetrahedron 48 (1992) 9217-9232). Whatman 540 cellulose was dried over night in the desiccator. The membrane was then functionalized for 3 h with 0.2 M Fmoc-β alanine, 0.24 M diisopropyl carbodiimide and 0.4 M 1-methyl-imidazole. After washing with 3× dimethylformamide (DMF), the Fmoc group was cleaved off by treatment with 20% piperidine in DMF. The peptides were synthesized by means of the AutoSpot Robot ASP222 (INTAVIS, Germany). As the first amino acid, always a further β-alanine spacer was introduced. After the first β-alanine coupling, the remaining free amino groups were acetylated with 2% acetic anhydride. As the amino acids, Fmoc-protected Opfp esters of the amino acids (O-pentafluorophenyl, Novabiochem), dissolved in N-methyl pyrrolidone at a concentration of 0.3 M were used. Each amino acid was spotted twice per cycle. After each cycle, the Fmoc group was cleaved off with piperidine, as described above, and then the membrane was washed 6× with DMF. After the synthesis of the last amino acid, it was again acetylated, and then the side protection groups were cleaved off. At first, the membrane was treated with 90% trifluoroacetic acid, 3% triisobutyl silane, 1% phenol, 2% water and 4% dichloromethane for 30 minutes. Subsequently, the membrane was washed 5× with DCM, 3× with DMF and methanol and dried. This was followed by a further cleavage by treatment with 50% trifluoroacetic acid, 3% triisobutyl silane, 1% phenol, 2% water and 44% dichloromethane for two hours. […]
# Since the major immune response is provided in the form of IgG, IgG was purified from the sera via protein G Sepharose. […] The concentration of the biotinylated IgG was determined via photometric absorption measurement at 280 nm, and after the addition of 0.2% sodium azide the material was stored at 4° C. […]
row,Sequence,binding of immune serum to the 10 mer peptides
1,DLDPGQTLIY [compound 61],increasingly binds
2,ALQKEITTRY [compound 42],increasingly binds
3,DPKFITSILY [compound 45],increasingly binds
4,IADVAYYFEK [compound 53],increasingly binds
